These results are taken from patent US11173173B2, “Methods for treating chemoresistant cancer-initiating cells” (UNIVERSITY OF CONNECTICUT, priority 2015, dated 2021).

One data set concerns pS^552-β-catenin. The experiment in a line: Western analysis of pS552-β-catenin in compound-treated TOP and FOP cells. The settings on record: TOP and FOP cells treated 48 hours at EC90, EC50, EC25.
The test system of data set [1] is BM cells isolated from leukemic Pten:β-cat^Act double mutants (LSCs, HSPCs). The experiment in a line: In vitro treatment of BM cells from leukemic mice, flow cytometry for LSCs and HSPCs. The class given is cell-based, mouse. The settings on record: 11, 33 or 100 nM, 72 hours. The protocol: Doxorubicin, 0105375, and thioguanosine were added to 11, 33 or 100 nM and cultured for 72 hours and analyzed by flow cytometry for LSCs (a) and HSPCs (b) as in FIG. 1. Fold change before and after culture for each population is indicated relative to equivalent vehicle control concentrations.
Bone marrow cells from leukemic mice at 8 weeks post-induction were cultured overnight at 5-20×10^4 cells per well in 96-well U-bottom tissue culture plates (Becton, Dickinson and Company; Cat. No. 353077) in HSC expansion media in low O2 conditions as previously described (Perry, J. M. et al. Cooperation between both Wnt/{beta}-catenin and PTEN/PI3K/Akt signaling promotes primitive hematopoietic stem cell self-renewal and expansion. Genes Dev 25, 1928-1942 (2011)). Doxorubicin (Sigma; D1515), 0105375 ((S)-N-(2-bromobenzyl)-N-(1-hydroxy-3-phenylpropan-2-yl)ethenesulfonamide, University of Kansas CMLD compound), or Thioguanosine was mixed with HSC expansion media and added to the cultures to obtain final concentrations of 11, 33, 100 nM. Equivalent amounts of DMSO alone (vehicle control) were added to parallel cultures for comparison. Half-media changes were performed approximately every 24 hrs. Cultures were analyzed after 72 hrs exposure to the indicated drug.

Data set [2] relates to T-ALL blast cells, LSCs and HSPCs of leukemic Pten:β-cat^Act mice. The experiment in a line: Flow cytometry of BM of treated leukemic mice (blast cells, LSCs, HSPCs). The class given is in vivo, mouse. The settings on record: 10 days post-treatment. The protocol:
Leukemic mice were treated with vehicle, chemotherapy, [Low]DXR or chemotherapy+[Low]DXR as described in FIG. 3a. a-c, At 10 days post-treatment, BM was analyzed by flow cytometry to determine frequency of blast cells (a), LSCs (b) and HSPCs (c). Shown are representative plots. d, Average frequency±SD of each population from a-c (n≥6 per group). e, Limiting-dilution assays to determine CRU frequency were performed on blast cells and LSCs sorted from chemotherapy treated leukemic mice and on HSPCs sorted from [Low]DXR treated mice. Engraftment 1% blast cells) was determined in NSG recipients at 10-12 weeks post-transplant.
Whole bone marrow was isolated from uninduced HSC-SCL-Cre^+ Pten^fx/fx βcat^fx(Exon3)/+ (Pten:β-cat^Act) mice and combined with an equal portion of Cre negative bone marrow from a littermate and transplanted into irradiated (10 Gy) B6.SJL-Ptprc^a Pepc^b/BoyJ (Ptprc) recipients.
Chemotherapy consisted of Nelarabine (Selleck) and Dexamethasone (BioVision) administered daily for 5 days consecutively. 43.4 mg/ml Nelarabine was administered intravenously via the tail vain according to the formula: Body Weight (g)×5=volume to inject (μl), which yielded 217 mg/kg. 2.5 mg/ml Dexamethasone was injected intraperitoneally according to the formula: Body Weight (g)×4=volume to inject (μl), yielding 10 mg/kg. […] [Low]NanoDXR (also referred to as [Low]NanoDoxo throughout) treatment used doxorubicin nanoparticles as described in International Patent Publication WO 2015/054269 (incorporated by reference in its entirety) administered as a single IV injection once per week on day 1 relative to above treatments using 0.8 mg/kg. Maintenance [Low]NanoDXR consisted of once per week injections of 0.4 mg/kg. Groups combining Nelarabine with Doxorubicin used a single injection containing both drugs. All drugs were solubilized in 45% (2-Hydroxypropyl)-β-cyclodextrin (HBC).
Cells were collected from bone marrow (femur and tibia), spleen, peripheral blood, and thymus. For cell surface phenotyping, a lineage cocktail (Lin) was used including CD3 (for HSPC but not LSC analysis), CD4, CD8, Mac-1, Gr1, B220, IgM, and Ter119 (eBioscience, San Diego, Calif.). Monoclonal antibodies against CD3 (separate fluorophore for LSC analysis), Sca-1, c-Kit, CD45.1, and CD45.2 were also used where indicated. Cell sorting and analysis were performed using an inFlux (BD), MoFlo (Dako, Ft. Collins, Colo.) and/or CyAn ADP (Dako, Ft. Collins, Colo.). Data analysis was performed using FlowJo software (Ashland, Oreg.).

A short description of data set [3]: Cardiotoxicity based on cardiac troponin I level and histology. The class given is in vivo. The settings on record: 1 mg/kg (8 doses) and high single dose. On the procedure: Data are presented as mean±SD (n=5) *P<0.05, **P<0.01. c provides cardiac Troponin I level after administration of free doxorubicin (DOX) and doxorubicin nanoparticles (DOX-NPs).
The doxorubicin nanoparticles have an average particle diameter of 138 nm. […] The release of Dox in PBS was steady at approximately 2% per day, with 24% released in 12 days. […] Cardiotoxicity was tested based on cardiac troponin I level and histology.

The subject of another data set is pan β-catenin. The experiment in a line: Western analysis of pan β-catenin in compound-treated TOP and FOP cells. The settings on record: TOP and FOP cells treated 48 hours at EC90, EC50, EC25.

Experimental for pS^552-β-catenin: (§1) Cytotoxicity profiles (CTG) of compounds were also determined. […] TOP and FOP cells were treated with candidate compounds at EC90, EC50 and EC25 derived from (b) for 48 hours, washed and flash frozen for Western analysis (c).
(§2) Activity of compounds was tested against HEK-TOP cells vs. HEK FOP cells for inhibition of luciferase activity. The cytotoxicity profiles of the compounds were also tested using Cell Titer Glo assay (Promega) on HEK-TOP cell lines. […] The HEK cells and HEK Top cells were plated at 300,000 cells/well in 6 well plates and were treated in duplicate with EC90, EC50 and EC25 concentrations of the 25 repurchased compounds as well as three controls. After 48 h of exposure, the cells were washed with PBS and flash frozen. The frozen cells were lysed directly in plates for Western analysis.
Experimental for pan β-catenin: as §1, §2

Consider `COc1cccc2c1C(=O)c1c(O)c3c(c(O)c1C2=O)C[C@@](O)(C(=O)CO)C[C@@H]3O[C@H]1C[C@H](N)[C@H](O)[C@H](C)O1` [DXR, doxorubicin], for which the “inhibition of pS552-β-catenin (Western)” value with pS^552-β-catenin is given as “effectively inhibited pS^552-β-catenin”. In data set [1], the “HSPCs after culture, relative to vehicle” value is reported as “not HSPCs” and the “LSCs after culture, relative to vehicle” value is reported as “significantly reduced LSCs”. For the same molecule, in data set [2] (5 daily injections 0.15 μg/g), the “LSC reduction, free DXR 5 doses of 0.15 μg/g” value is on record as “ineffective”. Also, in data set [2] ([Low]DXR 0.5 mg/kg daily x5), the “HSPCs in BM vs vehicle” value is given as “allowed significant recovery of HSPCs”, the “LSCs in BM vs vehicle” value is “significantly reduced LSCs compared to vehicle” and the “blast cells in BM vs vehicle” value is “did not significantly reduce blast cells”. Besides, in data set [2] ([Low]DXR with Dexa.), the “blast cells in BM, [Low]DXR in combination with dexamethasone” value was “does not act as a traditional chemotherapeutic”. In data set [2] (normal dose DXR (8x higher than [Low]) with Dexa.), the “blast cells in BM, clinical equivalent (normal) dose DXR” value was “acted similar to chemotherapy in their reduction”. Besides, the “cardiotoxicity (cardiac troponin I level and histology)” value in data set [3] is on record as “showed cardiotoxicity”. Further, the “effect on pan β-catenin (Western)” value in the data set with pan β-catenin was “only minimal effect on pan β-catenin”.
